Assay results reported in US20050058745A1, “Use of Labiatae herb preparations for extending the flavor shelf life of malt beverages” (priority 2003, published 2005).

Key:
[1] = Scaling sensory panel for staling, model citrus beverage; conditions: for Panelist staling Average (0 fresh, 10 most stale): 50 ppm (RA/CA: 50 ppm each)
Method: Carbon filtered water was carbonated to 3.5 to 4 times the volume of beer. 59.2 ml of syrup was added to each 355 ml bottle. Each bottle was individually dosed with the treatments listed in Table 22 by adding 1.775 mL of a 1% (weight/volume) solution of carnosol or rosmarinic acid in ethanol to give 50 ppm of each. The bottle was filled to approximately 355 ml with carbonated water before it was capped and inverted. Fresh samples were stored in the refrigerator (0° C.). Heat exposed samples were aged in the oven (32° C.) for seven days. The sensory data were taken in the following manner. Each sample (controls and treatments) was presented to the panelists one time. Panelists rated the beers on a scale of 0-10, with 0 being fresh and 10 being most stale. Panelists were given examples of a fresh and stale material prior to the panel for training on these characteristics. Since the output of the panel as a whole was desired, and not any one individual panelist, the means of each treatment sample in each replicate groups were calculated and tabulated as in Table 24. […] These diluted samples best represent the loss in flavor that occurs when the sample is thermally aged. […] Statistical analysis consisted of doing paired t-Tests on the treatment sample vs. the aged control sample (Table 25). One-tailed tests were used that probed the question whether the […] values of one treatment were lower than that of the other (e.g treatment vs. control). Confidence levels were reported along with p values.

[2] = Flavor stability of flavored malt beverage; conditions: 10 ppm CA and 5 ppm CN; 10 ppm RA
Method: To a flavored malt beverage 10 ppm CA and 5 ppm CN, is added, and the beverage aged. To the same beverage, 10 ppm RA is added. […] When RA is added to the CA and or CN, an improvement is observed.

[3] = HPLC cis/trans ratio of isohumulone in beer stored at 40° C.; assay type: physicochemical; conditions: for Cis/Trans Ratio of Isohumulone: 20 ppm of each constituent
Method: One case of bottles was opened, 20 ppm carnosic acid and 20 ppm rosmarinic acid in the form of a propylene glycol solution was added and the bottles fobbed and crowned according to the procedure detailed in Example 1. An additional case was opened, fobbed and crowned in the same manner, and designated “Control”. All bottles were put in a 40° C. temperature controlled hot room. Samples of the above beer were taken at 0 time, 7, 21, 35, 44 and 58 days for HPLC hop acid analysis by a modification of the method of Burroughs and Williams [1999]. Beer samples (100 mL) were gently poured into tall-form beakers to avoid excessive foaming. Octanol (1-2 drops) was added to minimize foam, and the beer was sparged with helium for 10-15 minutes to degas them. The degased beer was transferred to a 2 mL autosampler vial and assayed according to the method in the reference.
The level of trans declines faster than the level of cis isomers. The trans isomers in this example are 28% of the total hop acids.

[4] = DCIP redox potential of the beer of Example 1, with added air; assay type: physicochemical; conditions: 20 ppm CA, Plus Air
Method: A 10 mg/mL solution of carnosic acid was prepared by taking 250 mg of 100% pure crystal by HPLC and diluting to a total volume of 25 mL with ethanol.
The bottle dosing process from Example 1 was modified to allow for the inclusion of air. • A bottle of the beer was opened, struck sharply on the top to induce foaming (called “fobbing”), and crowned. The fobbing excludes air. The bottle was swirled and inverted. This sample was designated No CA, No Air. • A bottle was opened and dosed with 7.1 mg of CA (20 ppm) to a 12 oz bottle from 710 μL of the above solution. After addition we gave the headspace two puffs of air, from a 25 mL squeeze bulb. The bottle was crowned, swirled and inverted without fobbing. […]
A standard solution of […] sodium salt (DCIP) at a concentration of 145 mg/dL was prepared by the method described in Methodensammlung der Mitteleuropäischen Brautechnischene Analösen Kommission, Vierte Ausgabe 2002, Editor Prof. […] The concentration of DCIP in mg/dL was measured by multiplying the mL of titer by 14.5. […]
The beers were stored in a 39° C. box for 14 days. […] The beers to be analyzed (the four treatments above) were degassed by centrifuging at 6,000 rpm for 15 min. […] Some of the degassed beer was poured to fill a 1 cm cuvette and placed in a spectrophotometer set to record the absorbance at 520 nm. […]
The “Redox Potential” was calculated by using the formula: [formula]

[5] = DCIP redox potential vs CA concentration, semi-light beer; assay type: physicochemical; conditions: 4 hr, 2-4° C.
Method: The light beer was purchased at a local market and was 2 months old at time of use. Carnosic acid was added via a 1% ethanol solution made with pure CA. The levels of addition were 0, 5, 10, 15 and 20 ppm. The beers were opened, additions made and the beers were fobbed and crowned as described in Example 4. All analyses were done in triplicate using the DCIP method as described in Example 4. The samples were refrigerated for approx. 4 hr before being degassed and analyzed.
The same experiment was carried out with a semi-light beer with a production code indicating it was 5 months old.

| flavor stabilization in model citrus beverage ([1]; scaling study of staling) | flavor stability of aged flavored malt beverage [2] | SMILES | Panelist staling Average (0 fresh, 10 most stale) ([1]; Aged (32° C., seven days)) | Panelist staling Average (0 fresh, 10 most stale) ([1]; Fresh) | time up to which the cis/trans level was helped to be maintained ([3]; 20 ppm CA, 40° C.) | Cis/Trans Ratio of Isohumulone ([3]; Day 0, 40° C.) | Cis/Trans Ratio of Isohumulone ([3]; Day 7, 40° C.) | Cis/Trans Ratio of Isohumulone ([3]; Day 21, 40° C.) | Cis/Trans Ratio of Isohumulone ([3]; Day 35, 40° C.) | Cis/Trans Ratio of Isohumulone ([3]; Day 44, 40° C.) | Cis/Trans Ratio of Isohumulone ([3]; Day 58, 40° C.) | Redox Initial [4] | Redox After 14 Days ([4]; 39° C.) | Redox Potential ([5]; 5 ppm CA) | Redox Potential ([5]; 10 ppm CA) | Redox Potential ([5]; 15 ppm CA) | Redox Potential ([5]; 20 ppm CA) |
| --- | --- | --- | --- | --- | --- | --- | --- | --- | --- | --- | --- | --- | --- | --- | --- | --- | --- |
| not an effect flavor stabilizer | only slightly better than the control | O=C(/C=C/c1ccc(O)c(O)c1)O[C@H](Cc1ccc(O)c(O)c1)C(=O)O [RA, rosmarinic acid] | 6.17 | 0.67 |  |  |  |  |  |  |  |  |  |  |  |  |  |
|  |  | CC(C)c1cc2c(c(O)c1O)[C@@]1(C(=O)O)CCCC(C)(C)[C@@H]1CC2 [CA, carnosic acid] |  |  | about 35 days | 2.699 | 2.850 | 3.947 | 5.450 | 7.974 | 9.863 | 37.0 | 33.8 | 47.4 | 56.6 | 64.8 | 73.9 |
